Data as given in patent publication US9880084B2, “Apparatus for separation of particles” (THE UNIVERSITY OF BRITISH COLUMBIA, priority 2011, dated 2018).

System: red blood cells
Assay: Red blood cell deformability analysis in microfluidic funnel constriction device (threshold pressure / cortical tension)
Assay type: cell-based
Settings: for Average cortical tension calculated based on equation (1): number in brackets = cells tested
Description: The deformability of red blood cells was evaluated using a microfluidic cell separation apparatus. An apparatus comprising a serial funnel configuration (schematically represented in FIG. 4) was employed, with funnel constructions of W0=0.5, 1, 1.5, 2, 3, 4, 5 and 6, 7 μm in series. As red blood cells are toroid or disc-shaped, rather than generally spherical, in the absence of movement restriction, they may progress through the device as a ‘flat’ disk (e.g. sideways), or ‘on edge’ (substantially upright, like a wheel). A channel with a height of about 2-3 μm or less will confine the majority of red blood cells to migrate as a ‘flat disk, while a channel with a height greater than about 3-4 μm will allow the red blood cell to migrate in either configuration, or folded or at an angle. Thus, the apparatus was configured to provide a channel depth of about 3 μm, which confines the cell to move flat into the funnel, not to stand up and fold as it traverses through. The threshold pressure required to push the cell through the funnel is measured as an indicator of the whole cell rigidity or deformability. The minimum applied pressure differential is ˜0.3 Pa. Accordingly, the cortical tension of the cell can be measured based on the information of the cell radius, funnel geometry and measured threshold pressure, as governed by equation (1) above derived from Laplace law PMS (phenazine methosulfate) generates superoxide from within the cell in the same way as the auto-oxidation process inside of the sickled red blood cell (RBC). In response to oxidation, the cell membrane stiffens. This induced stiffening may be employed to simulate the microrheologic properties of dense and/or dehydrated sickle cells (Hebbel, R. P., A. Leung, and N. Mohandas, Oxidation-Induced Changes in Microrheologic Properties of the Red-Blood-Cell Membrane. Blood, 1990. 76(5): p. 1015-1020, Hebbel, R. P., The sickle erythrocyte in double jeopardy: autoxidation and iron decompartmentalization. Seminars in hematology, 1990. 27(1): p. 51-69, and references therein). Here we use microfluidic device to measure the rigidity of PMS treated red blood cells compared to untreated (control) red blood cells, as well as the degree of rigidity change corresponding to different concentration of PMS. RBCs were suspended at 20% hematocrit in balanced salt solution with antibiotics. The RBC suspensions were then modified with 0, 10, 25, and 50 μM PMS for 60 minutes, followed by dilution 200:1 using phosphate buffered saline for use with the apparatus. The PMS treated RBCs and control RBCs were tested to investigate the effect of PMS on rigidity and/or deformability of the RBCs. Measured threshold pressures are an indication of the changes in deformability. […] Threshold pressures were measured of RBC squeezing through 1.1 μm and 1.4 μm constrictions.

## COS(=O)(=O)[O-].C[n+]1c2ccccc2nc2ccccc21 [PMS, phenazine methosulfate]
1.1 μm and 1.4 μm constrictions, 0, 10, 25, 50 μM PMS, FIG. 15
  Threshold pressure of RBC squeezing through constrictions: increases as the concentration increases
PMS 10 to 50 μM
  Deformability of the red cell membrane: decreases as the PMS concentration increases
RBC treated with 10 μmol PMS for 60 minutes
  Average cortical tension calculated based on equation (1): 2.29 ± 0.19 (7) pN/μm
RBC treated with 25 μmol PMS for 60 minutes
  Average cortical tension calculated based on equation (1): 3.38 ± 0.30 (7) pN/μm
RBC treated with 50 μmol PMS for 60 minutes
  Average cortical tension calculated based on equation (1): 4.17 ± 0.19 (8) pN/μm
Fresh from the PMS treatment
  Red cell rigidity versus normal control RBC: obvious increase in rigidity
